{"source": "patent EP0452101B1", "about": "“Spiro bridged and unbridged heterocyclic compounds” (ISRAEL INSTITUTE FOR BIOLOGICAL RESEARCH, priority 1990, dated 1991)", "key": {"[1]": {"system": "rat cerebral cortex synaptosomes", "assay": "Synaptosomal 3H-ACh release, basal and K+-evoked", "from_the_text": "The effects of AF150 (and for comparison purposes, AF125, MeN-A-343 and oxotremorine) on basal- and K^+-evoked release of ^3H-ACh were studied on synaptosomes prepared from rat cerebral cortex using the methods described in detail by Pittel et al (J. Neurochem., 55: 665-672, 1990). […] On the other hand, the action of AF150 on presynaptic muscarinic receptors, causing an increase in K^+-evoked ACh release, can be considered either as an M2 antagonistic or an M1 agonistic effect. […] The existence of muscarinic autoreceptors that increase ACh release was manifested also in the PNS in smooth muscle preparation (Kilbinger and Nafziger, Naunyn Schmiedebergs Arch. Pharmacol. 328: 304-309, 1985)."}, "[2]": {"assay": "Chemical stability (thermal, aqueous solution)", "format": "physicochemical", "from_the_text": "Most of these compounds are relatively stable. […] Its chemical behaviour resembles that of known 2-oxazoline derivatives. […] The formation of the decomposition products can be monitored with ^1H-NMR by inspection at two regions δ 3.3-3.5 (appearance of two doublets) and 1.9-2.0 ppm (appearance of two additional singlets).\nThe expected decomposition pattern (when e.g., X is O and Y is N) involves opening of the oxazoline ring to form both amide and ester as shown in Scheme E, in which the quinuclidine-derived compounds are depicted illustratively. The formation of two new singlets at δ 1.9-2.0 ppm as expected for R = Me of these two structures are in agreement with this supposition. [drawing 32]\nRing opening is much faster in the presence of dilute hydrochloric acid. […] The tendency to decomposition of such salts complicates the optical separation of compounds such as AF125 and AF123. However, this problem can be overcome by using the method described for the optical separation of the enantiomers of AF125, or alternatively the amino-alcohols such as 3-aminomethylquinuclidin-3-ol can be resolved and the separated enantiomers can then be cyclized using an ester or imidate as already described. In yet another alternative the N-acyl derivatives of (e.g.) 3-aminomethylquinuclidin-3-ol can be resolved and the separated enantiomers can then be cyclized per se as shown in Scheme K: [drawing 33] […]"}, "[3]": {"biological_target": "T1, m3 subtype (SK-N-SH cells) (Homo sapiens, UniProt P20309)", "T1 construct": "endogenous in cells; host or cells: SK-N-SH human neuroblastoma cells", "T1 sequence (P20309 whole entry)": "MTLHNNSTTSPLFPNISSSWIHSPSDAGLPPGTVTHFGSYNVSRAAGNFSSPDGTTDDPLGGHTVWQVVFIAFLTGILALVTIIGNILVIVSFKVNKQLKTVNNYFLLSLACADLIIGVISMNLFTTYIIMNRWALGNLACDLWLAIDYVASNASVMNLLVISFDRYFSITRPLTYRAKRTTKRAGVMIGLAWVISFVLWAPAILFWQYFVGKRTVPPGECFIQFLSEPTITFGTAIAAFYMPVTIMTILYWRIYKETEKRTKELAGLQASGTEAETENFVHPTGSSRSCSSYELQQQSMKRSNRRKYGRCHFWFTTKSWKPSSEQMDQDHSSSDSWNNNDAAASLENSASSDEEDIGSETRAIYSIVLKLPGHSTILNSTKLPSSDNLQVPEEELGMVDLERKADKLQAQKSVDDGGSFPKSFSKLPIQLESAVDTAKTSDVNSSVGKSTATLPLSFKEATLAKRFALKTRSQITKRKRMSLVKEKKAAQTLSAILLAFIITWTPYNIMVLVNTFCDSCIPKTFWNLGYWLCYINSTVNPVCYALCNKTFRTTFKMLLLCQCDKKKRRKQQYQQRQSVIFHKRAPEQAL", "assay": "PI hydrolysis in SK-N-SH neuroblastoma cells", "format": "cell-based", "method": "(§1) The new compounds AF150, AF151, AF150(S) and AF125 were assayed for their ability to stimulate PI in CHO cells transfected with m1 and m3 receptors, respectively (Buck and Fraser, loc cit), and in cultured human neuroblastoma cells, line SK-N-SH, which express mainly the m3 subtype, but not the m1 subtype (Pinkas-Kramarski et al, Neurosci. Lett. 188: 335-340, 1990; Luthin et al Mol. Pharmacol. 34: 327-333, 1988). These compounds were also assayed on cultured PC12 cells which express mainly m4 subtype receptors and are coupled to inhibition of AC activity (Pinkas-Kramarski et al, loc cit).\n(§2) Stimulation of PI breakdown was assayed using the method described by Stein et al (EMBO J. 7: 3031-3035, 1988), and modulation of AC activity was assayed by the method of Stein et al, loc cit and Pinkas-Kramarski et al (FEBS Lett., 239: 174-178, 1988). […]"}, "[4]": {"biological_target": "m3 receptors (Rattus norvegicus, UniProt P08483)", "sequence (P08483 whole entry)": "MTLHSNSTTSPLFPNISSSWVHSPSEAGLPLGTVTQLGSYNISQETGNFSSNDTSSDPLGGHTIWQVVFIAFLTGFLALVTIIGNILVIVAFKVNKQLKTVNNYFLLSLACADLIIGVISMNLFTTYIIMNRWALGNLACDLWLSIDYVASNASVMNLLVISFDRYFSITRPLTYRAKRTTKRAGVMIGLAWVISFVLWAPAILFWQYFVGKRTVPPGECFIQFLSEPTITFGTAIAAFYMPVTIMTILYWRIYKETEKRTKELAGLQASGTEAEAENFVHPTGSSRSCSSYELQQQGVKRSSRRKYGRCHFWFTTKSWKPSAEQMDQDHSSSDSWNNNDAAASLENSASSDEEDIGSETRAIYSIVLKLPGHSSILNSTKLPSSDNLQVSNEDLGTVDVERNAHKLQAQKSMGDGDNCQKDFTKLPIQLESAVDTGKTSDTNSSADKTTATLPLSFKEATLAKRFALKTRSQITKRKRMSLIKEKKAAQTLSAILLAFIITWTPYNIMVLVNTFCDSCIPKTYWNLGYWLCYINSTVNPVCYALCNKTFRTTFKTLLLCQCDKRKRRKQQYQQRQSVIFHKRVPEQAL", "assay": "PI hydrolysis in CHO cells transfected with m3 receptors", "format": "cell-based", "settings": "for effective concentration which induces the effect: CHO m3, PI hydrolysis, footnote b; for PI (phosphoinositides hydrolysis): CHO m3, tested at 1mM", "method": "as §1, §2"}, "[5]": {"biological_target": "T2, m4 subtype receptors (PC12 cells) (Rattus norvegicus, UniProt P08485)", "T2 construct": "endogenous in cells; host or cells: PC12 cells", "T2 sequence (P08485 1-478)": "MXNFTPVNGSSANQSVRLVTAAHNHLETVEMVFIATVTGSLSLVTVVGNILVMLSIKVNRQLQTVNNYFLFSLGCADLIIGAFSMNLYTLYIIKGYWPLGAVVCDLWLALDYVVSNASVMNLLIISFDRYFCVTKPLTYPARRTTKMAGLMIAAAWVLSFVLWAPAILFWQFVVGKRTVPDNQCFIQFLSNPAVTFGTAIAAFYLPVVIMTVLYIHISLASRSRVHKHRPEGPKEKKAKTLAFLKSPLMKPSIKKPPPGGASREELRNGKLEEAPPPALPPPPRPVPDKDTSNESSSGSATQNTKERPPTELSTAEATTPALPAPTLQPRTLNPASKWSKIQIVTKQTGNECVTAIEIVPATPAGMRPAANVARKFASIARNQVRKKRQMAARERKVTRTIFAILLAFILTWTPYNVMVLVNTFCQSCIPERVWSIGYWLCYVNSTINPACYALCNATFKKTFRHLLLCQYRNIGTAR", "assay": "Inhibition of adenylate cyclase activity in PC12 cells", "format": "cell-based", "settings": "for EC50: PC12 m4, AC activity; for AC (adenylate cyclase activity): PC12 m4, tested at 1mM", "method": "as §1, §2"}, "[6]": {"system": "Mice, Male CD strain"}, "[7]": {"biological_target": "T3, M1 muscarinic receptor (Rattus norvegicus, UniProt P08482)", "T3 sequence (P08482 1-460)": "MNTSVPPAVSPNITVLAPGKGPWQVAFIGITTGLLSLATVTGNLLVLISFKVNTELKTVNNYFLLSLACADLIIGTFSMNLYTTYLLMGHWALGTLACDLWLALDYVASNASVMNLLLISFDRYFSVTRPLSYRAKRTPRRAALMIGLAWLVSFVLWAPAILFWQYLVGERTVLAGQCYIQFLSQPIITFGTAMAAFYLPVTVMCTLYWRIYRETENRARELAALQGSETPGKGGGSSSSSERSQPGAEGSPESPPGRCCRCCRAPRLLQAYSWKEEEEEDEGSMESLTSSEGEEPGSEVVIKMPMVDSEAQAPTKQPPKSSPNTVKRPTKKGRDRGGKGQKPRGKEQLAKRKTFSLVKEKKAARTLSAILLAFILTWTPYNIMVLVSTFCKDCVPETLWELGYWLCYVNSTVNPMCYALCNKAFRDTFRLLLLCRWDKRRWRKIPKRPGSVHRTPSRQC", "assay": "Displacement of 3H-QNB from rat cerebral cortex, 50 mM phosphate buffer", "format": "binding"}, "[8]": {"system": "muscarinic receptors", "assay": "(-)3H-QNB binding to rat cerebral cortex homogenates with and without Cu++ treatment"}}, "note": "Like-named read-outs stand apart in the source and are kept apart here.", "data": [{"molecule": "CC1=NCC2(CN3CCC2CC3)O1", "note": "(racemic) [AF125, 2-Methyl-spiro(1,3 oxazoline-5,3')quinuclidine]", "values": [{"measurement": "K+-evoked 3H-ACh release", "setting": "[1]; 1.0 mM", "result": "78±9 (2) %"}, {"measurement": "thermal stability", "setting": "[2]", "result": "thermally stable and can be distilled at 130° without decomposition"}, {"measurement": "interference with the effect of carbachol", "setting": "[3]", "result": "10-20%"}, {"measurement": "stimulation of phosphoinositides hydrolysis relative to carbachol", "setting": "[3]", "result": "20-25%"}, {"measurement": "PI, % of carbachol effect", "setting": "[3]; SK-N-SH m3", "result": 20, "unit": "%"}]}, {"molecule": "CC1=NC2(CCN(C)CC2)CO1", "note": "[AF151, 1-methylpiperidine-4-spiro-4'-(2'-methyl-1',3'-oxazoline)]", "values": [{"measurement": "effective concentration which induces the effect", "setting": "[4]", "result": "10^b µM"}, {"measurement": "PI (phosphoinositides hydrolysis)", "setting": "[4]", "result": "+"}, {"measurement": "EC50", "setting": "[5]", "result": 1, "unit": "µM"}, {"measurement": "AC (adenylate cyclase activity)", "setting": "[5]", "result": "+++"}]}, {"molecule": "CC1=NCC2(CCN(C)CC2)O1", "note": "[AF150, 2-Methyl-spiro(1,3-oxazoline-5,4')-1'-methylpiperidine]", "values": [{"measurement": "Basal 3H-ACh release", "setting": "[1]; 0.1 mM", "result": 121, "unit": "%"}, {"measurement": "K+-evoked 3H-ACh release", "setting": "[1]; 0.1 mM", "result": 110, "unit": "%"}, {"measurement": "K+-evoked 3H-ACh release", "setting": "[1]; 1.0 mM", "result": "115±4 (6) p<0.01%"}, {"measurement": "analgesia (tail pinch)", "setting": "[6]; 1 mg./kg. i.p., any time of observation", "result": "No analgesia"}, {"measurement": "analgesia (tail pinch)", "setting": "[6]; 5 mg./kg i.p., 15 minutes after injection", "result": "Partial analgesia"}, {"measurement": "analgesia (tail pinch)", "setting": "[6]; 10 mg./kg. i.p., 15 and 30 minutes", "result": "complete"}, {"measurement": "analgesia (tail pinch)", "setting": "[6]; 10 mg./kg. i.p., ≥ 60 minutes", "result": "no analgesia"}, {"measurement": "RATIOS c:a", "setting": "[7]; KH2 cerebellum : KH1 cortex (3H-QNB)", "result": 3.5}, {"measurement": "RATIOS b:a", "setting": "[7]; KL1 : KH1 cortex (3H-QNB)", "result": 49}, {"measurement": "RATIOS d:b", "setting": "[7]; KL2 cerebellum : KL1 cortex (3H-QNB)", "result": 17}, {"measurement": "% H1", "setting": "[7]; cortex, Table 5", "result": 13, "unit": "%"}, {"measurement": "% L1", "setting": "[7]; cortex, Table 5", "result": 87, "unit": "%"}, {"measurement": "%H (% of high affinity state)", "setting": "[8]; with Cu++ pretreatment (100 µM, 30 minutes)", "result": 37, "unit": "%"}, {"measurement": "%H (% of high affinity state)", "setting": "[8]; with Cu++ pretreatment (100 µM, 30 minutes), listed as 5", "result": "37±2", "unit": "%"}, {"measurement": "Ki", "setting": "[8]; with Cu++ pretreatment (100 µM, 30 minutes), read-out: KH", "result": "0.52 ± 0.003", "unit": "µM"}, {"measurement": "Ki", "setting": "[8]; with Cu++ pretreatment (100 µM, 30 minutes), read-out: KL", "result": "18 ± 2", "unit": "µM"}, {"measurement": "%H (% of high affinity state)", "setting": "[8]; without pretreatment", "result": 14, "unit": "%"}, {"measurement": "%H (% of high affinity state)", "setting": "[8]; without pretreatment, listed as 5", "result": "14±1", "unit": "%"}, {"measurement": "Ki", "setting": "[8]; without pretreatment, read-out: KH", "result": 0.32, "unit": "µM"}, {"measurement": "Ki", "setting": "[8]; without pretreatment, read-out: KL", "result": 33.5, "unit": "µM"}, {"measurement": "effective concentration which induces the effect", "setting": "[4]", "result": "10^b µM"}, {"measurement": "PI (phosphoinositides hydrolysis)", "setting": "[4]", "result": "+"}, {"measurement": "PI, % of carbachol effect", "setting": "[3]; SK-N-SH m3", "result": 40, "unit": "%"}, {"measurement": "EC50", "setting": "[3]; SK-N-SH m3, PI hydrolysis", "result": 3, "unit": "µM"}, {"measurement": "PI (phosphoinositides hydrolysis)", "setting": "[3]; SK-N-SH m3, tested at 1mM", "result": "+"}, {"measurement": "EC50", "setting": "[5]", "result": 1, "unit": "µM"}, {"measurement": "AC (adenylate cyclase activity)", "setting": "[5]", "result": "+++"}]}]}
